ChEMBL document CHEMBL1201862, “PubChem BioAssay data set” (2004)
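Test compounds were applied to cells in 96-well plates for 48 hours at 5 doses. Here, GI50 denotes the concentration required for 50% inhibition of growth.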 Active and inactive are the calls of the source. Cut-off read from the data, not from the text of the source: active = GI50 up to about 1.1 µM and inactive = higher.

Legend:
Assay in all cases: NCI anticancer screen, dose series, 48 h
SK-OV-3 = system: SK-OV-3
UACC-257 = system: UACC-257
SF-295 = system: SF-295
EKVX = system: EKVX
NCI-H226 = system: NCI-H226
HT-29 = system: HT-29
NCI-H522 = system: NCI-H522
HOP-92 = system: HOP-92
SF-539 = system: SF-539
SNB-19 = system: SNB-19
SK-MEL-5 = system: SK-MEL-5
UO-31 = system: UO-31
TK-10 = system: TK-10
COLO 205 = system: COLO 205
MOLT-4 = system: MOLT-4
LOX IMVI = system: LOX IMVI
HCT-15 = system: HCT-15
SW-620 = system: SW-620
RXF 631 = system: RXF 631
HCC 2998 = system: HCC 2998
M19-MEL = system: M19-MEL
RXF 393 = system: RXF 393
OVCAR-5 = system: OVCAR-5
HOP-62 = system: HOP-62
SN12C = system: SN12C
U-251 = system: U-251
DMS-114 = system: DMS-114
IGROV-1 = system: IGROV-1
SR = system: SR
SK-MEL-2 = system: SK-MEL-2
A498 = system: A498
CAKI-1 = system: CAKI-1
XF498 = system: XF498
RPMI-8226 = system: RPMI-8226
SNB-78 = system: SNB-78
NCI-H460 = system: NCI-H460
SF-268 = system: SF-268
LXFL 529 = system: LXFL 529
DLD-1 = system: DLD-1
KM-20L2 = system: KM-20L2
A549 = system: A549
NCI-H23 = system: NCI-H23
HL-60 = system: HL-60
K562 = system: K562
CCRF-CEM = system: CCRF-CEM
M14 = system: M14
KM12 = system: KM12
DMS-273 = system: DMS-273
ACHN = system: ACHN
OVCAR-4 = system: OVCAR-4
UACC-62 = system: UACC-62
HCT-116 = system: HCT-116
SNB-75 = system: SNB-75
SK-MEL-28 = system: SK-MEL-28
OVCAR-8 = system: OVCAR-8

SMILES: O=C(Nc1ccc([N+](=O)[O-])cc1)C(=O)C(C(=O)c1ccccc1F)C1OC(=O)c2ccccc21 (stereo not given)
- GI50 (SK-OV-3): 41.2 µM (inactive)
- GI50 (UACC-257): 86.5 µM (inactive)
- GI50 (SF-295): 40.3 µM (inactive)
- GI50 (EKVX): 40.4 µM (inactive)
- GI50 (NCI-H226): 16.6 µM (inactive)
- GI50 (HT-29): 51.9 µM (inactive)
- GI50 (NCI-H522): 14.7 µM (inactive)
- GI50 (HOP-92): > 100 µM (inactive)
- GI50 (SF-539): 21.5 µM (inactive)
- GI50 (SNB-19): 26.4 µM (inactive)
- GI50 (SK-MEL-5): 48.5 µM (inactive)
- GI50 (UO-31): 38.1 µM (inactive)
- GI50 (TK-10): > 100 µM (inactive)
- GI50 (COLO 205): 25.9 µM (inactive)
- GI50 (MOLT-4): 26 µM (inactive)
- GI50 (LOX IMVI): 17.7 µM (inactive)
- GI50 (HCT-15): 29.9 µM
- GI50 (SW-620): 49 µM (inactive)
- GI50 (RXF 631): 26 µM (inactive)
- GI50 (HCC 2998): 21 µM (inactive)
- GI50 (M19-MEL): 28.1 µM (inactive)
- GI50 (RXF 393): 50.9 µM (inactive)
- GI50 (OVCAR-5): 58.3 µM (inactive)
- GI50 (HOP-62): 58.1 µM (inactive)
- GI50 (SN12C): 30.8 µM (inactive)
- GI50 (U-251): 17.7 µM (inactive)
- GI50 (DMS-114): 29 µM (inactive)
- GI50 (IGROV-1): 64.9 µM (inactive)
- GI50 (SR): 21.9 µM (inactive)
- GI50 (SK-MEL-2): 23.7 µM (inactive)
- GI50 (A498): 80.9 µM (inactive)
- GI50 (CAKI-1): 59.4 µM (inactive)
- GI50 (XF498): 70.3 µM (inactive)
- GI50 (RPMI-8226): 18.2 µM (inactive)
- GI50 (SNB-78): 5.65 µM (inactive)
- GI50 (NCI-H460): 34.9 µM (inactive)
- GI50 (SF-268): 35 µM (inactive)
- GI50 (LXFL 529): 33.7 µM (inactive)
- GI50 (DLD-1): 40.6 µM (inactive)
- GI50 (KM-20L2): 33.9 µM (inactive)
- GI50 (A549): 67.6 µM (inactive)
- GI50 (NCI-H23): 81.1 µM (inactive)
- GI50 (HL-60): 22.2 µM (inactive)
- GI50 (K562): 25.3 µM (inactive)
- GI50 (CCRF-CEM): 16.6 µM (inactive)
- GI50 (M14): 69.7 µM (inactive)
- GI50 (KM12): 42.4 µM (inactive)
- GI50 (DMS-273): 23.8 µM (inactive)
- GI50 (ACHN): 58.5 µM (inactive)
- GI50 (OVCAR-4): 42.8 µM (inactive)
- GI50 (UACC-62): 25.2 µM (inactive)
- GI50 (HCT-116): 31.6 µM (inactive)
- GI50 (SNB-75): 30.2 µM (inactive)
- GI50 (SK-MEL-28): 46.9 µM (inactive)
- GI50 (OVCAR-8): 35.9 µM (inactive)
